Numbered stars: 1 amine (or outer) side, 2 acyl side, 3 side chain; on linkers, the order of the positions; unused ones are H or OH. Side chains are listed from the residue outwards. Peptide text beside a SMILES is read from it. * marks the point of attachment. C18 diacid = O=C(O)CCCCCCCCCCCCCCCCC(=O)*; C16 diacid = O=C(O)CCCCCCCCCCCCCCC(=O)*; γGlu = O=C(O)[C@H](CCC(=O)[*:2])N[*:1]; AEEA = NCCOCCOCC(=O)O
How the values were obtained:
[1] = Assay (X) Chemical stability assessment by RP-UPLC; format: physicochemical; conditions: pH 8.15, 14 days at 37° C. vs 5° C., 333 μM
glucagon receptor = molecular target: T1, glucagon receptor (Homo sapiens, UniProt P47871); experiment: Assay (I) Glucagon activity (cAMP biosensor, FLIPR); format: cell-based
T1 construct: expressed in transfected cells
T1 sequence (P47871 26-477): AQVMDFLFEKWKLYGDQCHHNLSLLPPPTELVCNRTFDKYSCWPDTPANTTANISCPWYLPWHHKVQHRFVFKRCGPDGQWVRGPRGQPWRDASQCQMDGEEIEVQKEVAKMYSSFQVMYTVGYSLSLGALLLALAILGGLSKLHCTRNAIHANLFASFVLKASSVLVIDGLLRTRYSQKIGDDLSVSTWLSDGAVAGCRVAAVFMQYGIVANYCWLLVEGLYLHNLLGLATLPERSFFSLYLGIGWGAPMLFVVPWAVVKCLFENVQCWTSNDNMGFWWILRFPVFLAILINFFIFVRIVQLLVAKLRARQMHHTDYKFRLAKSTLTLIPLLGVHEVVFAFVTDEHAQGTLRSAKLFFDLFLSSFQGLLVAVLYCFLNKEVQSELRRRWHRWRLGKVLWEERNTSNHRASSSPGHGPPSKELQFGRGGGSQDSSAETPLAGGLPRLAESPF

Row | Compound | Chemical stability [Purity loss/14 days 37 C.] [1] [%] | EC50 (glucagon receptor) [nM]
1 | CC[C@H](C)[C@H](NC(=O)[C@H](CC(=O)O)NC(=O)[C@H](CC(C)C)NC(=O)[C@H](Cc1ccc(O)cc1)NC(=O)[C@H](CCCCN)NC(=O)[C@H](CO)NC(=O)[C@H](Cc1ccc(O)cc1)NC(=O)[C@H](CC(=O)O)NC(=O)[C@H](CO)NC(=O)[C@@H](NC(=O)[C@H](Cc1ccccc1)NC(=O)[C@@H](NC(=O)CNC(=O)[C@H](CCC(N)=O)NC(=O)[C@H](CO)NC(=O)[C@@H](N)Cc1c[nH]cn1)[C@@H](C)O)[C@@H](C)O)C(=O)N[C@@H](CCCNC(=N)N)C(=O)N[C@@H](CCCNC(=N)N)C(=O)N[C@@H](C)C(=O)N[C@@H](CCC(N)=O)C(=O)N[C@@H](CC(=O)O)C(=O)N[C@@H](Cc1ccccc1)C(=O)N[C@H](C(=O)N[C@@H](CCCCNC(=O)CC[C@H](NC(=O)CC[C@H](NC(=O)CC[C@H](NC(=O)CC[C@H](NC(=O)CCCCCCCCCCCCCCCCC(=O)O)C(=O)O)C(=O)O)C(=O)O)C(=O)O)C(=O)N[C@@H](Cc1c[nH]c2ccccc12)C(=O)N[C@@H](CC(C)C)C(=O)N[C@@H](CC(C)C)C(=O)N[C@@H](CO)C(=O)N[C@H](C(=O)O)[C@@H](C)O)C(C)C [Example 79, N^ε24-[(4S)-4-carboxy-4-[[(4S)-4-carboxy-4-[[(4S)-4-carboxy-4-[[(4S)-4-carboxy-4-(17-carboxyheptadecanoylamino)butanoyl]amino]butanoyl]amino]butanoyl]amino]butanoyl]-[Ile16,Lys24,Leu27,Ser28]-Glucagon] | 3.8 | 0.189
2 | CC(C)C[C@H](NC(=O)[C@H](Cc1ccc(O)cc1)NC(=O)[C@H](CCCCN)NC(=O)[C@H](CO)NC(=O)[C@H](Cc1ccc(O)cc1)NC(=O)[C@H](CC(=O)O)NC(=O)[C@H](CO)NC(=O)[C@@H](NC(=O)[C@H](Cc1ccccc1)NC(=O)[C@@H](NC(=O)CNC(=O)[C@H](CCC(N)=O)NC(=O)[C@H](CO)NC(=O)[C@@H](N)Cc1c[nH]cn1)[C@@H](C)O)[C@@H](C)O)C(=O)N[C@@H](CC(=O)O)C(=O)N[C@@H](C)C(=O)N[C@@H](CCCNC(=N)N)C(=O)N[C@@H](CCCNC(=N)N)C(=O)N[C@@H](C)C(=O)N[C@@H](CCC(N)=O)C(=O)N[C@@H](CC(=O)O)C(=O)N[C@@H](Cc1ccccc1)C(=O)N[C@H](C(=O)N[C@@H](CCCCNC(=O)CC[C@H](NC(=O)CC[C@H](NC(=O)COCCOCCNC(=O)COCCOCCNC(=O)CC[C@H](NC(=O)CCCCCCCCCCCCCCC(=O)O)C(=O)O)C(=O)O)C(=O)O)C(=O)N[C@@H](Cc1c[nH]c2ccccc12)C(=O)N[C@@H](CC(C)C)C(=O)N[C@@H](CC(C)C)C(=O)N[C@@H](CO)C(=O)N[C@H](C(=O)O)[C@@H](C)O)C(C)C [Example 83, N^ε24-[(4S)-4-carboxy-4-[[(4S)-4-carboxy-4-[[2-[2-[2-[[2-[2-[2-[[(4S)-4-carboxy-4-(15-carboxypentadecanoylamino)butanoyl]amino]ethoxy]ethoxy]acetyl]amino]ethoxy]ethoxy]acetyl]amino]butanoyl]amino]butanoyl]-[Ala16,Lys24,Leu27,Ser28]-Glucagon] | 10.3 | 0.016
3 | CC(C)C[C@H](NC(=O)[C@H](Cc1ccc(O)cc1)NC(=O)[C@H](CCCNC(=N)N)NC(=O)[C@H](CO)NC(=O)[C@H](Cc1ccc(O)cc1)NC(=O)[C@H](CC(=O)O)NC(=O)[C@H](CO)NC(=O)[C@@H](NC(=O)[C@H](Cc1ccccc1)NC(=O)[C@@H](NC(=O)CNC(=O)[C@H](CCC(N)=O)NC(=O)[C@H](CO)NC(=O)[C@@H](N)Cc1c[nH]cn1)[C@@H](C)O)[C@@H](C)O)C(=O)N[C@@H](CC(=O)O)C(=O)N[C@@H](C)C(=O)N[C@@H](CCCNC(=N)N)C(=O)N[C@@H](CCCNC(=N)N)C(=O)N[C@@H](C)C(=O)N[C@@H](CCC(N)=O)C(=O)N[C@@H](CC(=O)O)C(=O)N[C@@H](Cc1ccccc1)C(=O)N[C@H](C(=O)N[C@@H](CCCCNC(=O)CC[C@H](NC(=O)CC[C@H](NC(=O)COCCOCCNC(=O)COCCOCCNC(=O)CC[C@H](NC(=O)CCCCCCCCCCCCCCC(=O)O)C(=O)O)C(=O)O)C(=O)O)C(=O)N[C@@H](Cc1c[nH]c2ccccc12)C(=O)N[C@@H](CC(C)C)C(=O)N[C@@H](CC(C)C)C(=O)N[C@@H](CO)C(=O)N[C@H](C(=O)O)[C@@H](C)O)C(C)C [Example 84, N^ε24-[(4S)-4-carboxy-4-[[(4S)-4-carboxy-4-[[2-[2-[2-[[2-[2-[2-[[(4S)-4-carboxy-4-(15-carboxypentadecanoylamino)butanoyl]amino]ethoxy]ethoxy]acetyl]amino]ethoxy]ethoxy]acetyl]amino]butanoyl]amino]butanoyl]-[Arg12,Ala16,Lys24,Leu27,Ser28]-Glucagon] (H-HSQGTFTSDYSRYLDARRAQDFVK([γGlu-γGlu-AEEA-AEEA-γGlu-C16 diacid])WLLST-OH) | 10.7 | 0.022
4 | CC(C)C[C@H](NC(=O)[C@H](CC(=O)O)NC(=O)[C@H](CC(C)C)NC(=O)[C@H](Cc1ccc(O)cc1)NC(=O)[C@H](CCCCN)NC(=O)[C@H](CO)NC(=O)[C@H](Cc1ccc(O)cc1)NC(=O)[C@H](CC(=O)O)NC(=O)[C@H](CO)NC(=O)[C@@H](NC(=O)[C@H](Cc1ccccc1)NC(=O)[C@@H](NC(=O)CNC(=O)[C@H](CCC(N)=O)NC(=O)[C@H](CO)NC(=O)[C@@H](N)Cc1c[nH]cn1)[C@@H](C)O)[C@@H](C)O)C(=O)N[C@@H](CCCNC(=N)N)C(=O)N[C@@H](CCCNC(=N)N)C(=O)N[C@@H](C)C(=O)N[C@@H](CCC(N)=O)C(=O)N[C@@H](CC(=O)O)C(=O)N[C@@H](Cc1ccccc1)C(=O)N[C@H](C(=O)N[C@@H](CCCCNC(=O)CC[C@H](NC(=O)CC[C@H](NC(=O)COCCOCCNC(=O)COCCOCCNC(=O)CC[C@H](NC(=O)CCCCCCCCCCCCCCC(=O)O)C(=O)O)C(=O)O)C(=O)O)C(=O)N[C@@H](Cc1c[nH]c2ccccc12)C(=O)N[C@@H](CC(C)C)C(=O)N[C@@H](CC(C)C)C(=O)N[C@@H](CO)C(=O)N[C@H](C(=O)O)[C@@H](C)O)C(C)C [Example 85, N^ε24-[(4S)-4-carboxy-4-[[(4S)-4-carboxy-4-[[2-[2-[2-[[2-[2-[2-[[(4S)-4-carboxy-4-(15-carboxypentadecanoylamino)butanoyl]amino]ethoxy]ethoxy]acetyl]amino]ethoxy]ethoxy]acetyl]amino]butanoyl]amino]butanoyl]-[Leu16,Lys24,Leu27,Ser28]-Glucagon] | 7.4 | 0.039
5 | CC(C)C[C@H](NC(=O)[C@H](CC(=O)O)NC(=O)[C@H](CC(C)C)NC(=O)[C@H](Cc1ccc(O)cc1)NC(=O)[C@H](CCCNC(=N)N)NC(=O)[C@H](CO)NC(=O)[C@H](Cc1ccc(O)cc1)NC(=O)[C@H](CC(=O)O)NC(=O)[C@H](CO)NC(=O)[C@@H](NC(=O)[C@H](Cc1ccccc1)NC(=O)[C@@H](NC(=O)CNC(=O)[C@H](CCC(N)=O)NC(=O)[C@H](CO)NC(=O)[C@@H](N)Cc1c[nH]cn1)[C@@H](C)O)[C@@H](C)O)C(=O)N[C@@H](CCCNC(=N)N)C(=O)N[C@@H](CCCNC(=N)N)C(=O)N[C@@H](C)C(=O)N[C@@H](CCC(N)=O)C(=O)N[C@@H](CC(=O)O)C(=O)N[C@@H](Cc1ccccc1)C(=O)N[C@H](C(=O)N[C@@H](CCCCNC(=O)CC[C@H](NC(=O)CC[C@H](NC(=O)CC[C@H](NC(=O)CC[C@H](NC(=O)CCCCCCCCCCCCCCCCC(=O)O)C(=O)O)C(=O)O)C(=O)O)C(=O)O)C(=O)N[C@@H](Cc1c[nH]c2ccccc12)C(=O)N[C@@H](CC(C)C)C(=O)N[C@@H](CC(C)C)C(=O)N[C@@H](CO)C(=O)N[C@H](C(=O)O)[C@@H](C)O)C(C)C [Example 86, N^ε24-[(4S)-4-carboxy-4-[[(4S)-4-carboxy-4-[[(4S)-4-carboxy-4-[[(4S)-4-carboxy-4-(17-carboxyheptadecanoylamino)butanoyl]amino]butanoyl]amino]butanoyl]amino]butanoyl]-[Arg12,Leu16,Lys24,Leu27,Ser28]-Glucagon] (H-HSQGTFTSDYSRYLDLRRAQDFVK([γGlu-γGlu-γGlu-γGlu-C18 diacid])WLLST-OH) | 3.7 | 0.343
6 | CC(C)C[C@H](NC(=O)[C@H](CC(C)C)NC(=O)[C@H](Cc1c[nH]c2ccccc12)NC(=O)[C@H](CCCCNC(=O)CC[C@H](NC(=O)CC[C@H](NC(=O)COCCOCCNC(=O)COCCOCCNC(=O)CC[C@H](NC(=O)CCCCCCCCCCCCCCCCC(=O)O)C(=O)O)C(=O)O)C(=O)O)NC(=O)[C@@H](NC(=O)[C@H](Cc1ccccc1)NC(=O)[C@H](CC(=O)O)NC(=O)[C@H](CCC(N)=O)NC(=O)[C@H](C)NC(=O)[C@H](CCCNC(=N)N)NC(=O)[C@H](CCCNC(=N)N)NC(=O)[C@H](CC(C)C)NC(=O)[C@H](CC(=O)O)NC(=O)[C@H](CC(C)C)NC(=O)[C@H](Cc1ccc(O)cc1)NC(=O)[C@H](CCCNC(=N)N)NC(=O)[C@H](CO)NC(=O)[C@H](Cc1ccc(O)cc1)NC(=O)[C@H](CC(=O)O)NC(=O)[C@H](CO)NC(=O)[C@@H](NC(=O)[C@H](Cc1ccccc1)NC(=O)[C@@H](NC(=O)CNC(=O)[C@H](CCC(N)=O)NC(=O)[C@H](CO)NC(=O)[C@@H](N)Cc1c[nH]cn1)[C@@H](C)O)[C@@H](C)O)C(C)C)C(=O)N[C@@H](C)C(=O)N[C@H](C(=O)O)[C@@H](C)O [Example 87, N^ε24-[(4S)-4-carboxy-4-[[(4S)-4-carboxy-4-[[2-[2-[2-[[2-[2-[2-[[(4S)-4-carboxy-4-(17-carboxyheptadecanoylamino)butanoyl]amino]ethoxy]ethoxy]acetyl]amino]ethoxy]ethoxy]acetyl]amino]butanoyl]amino]butanoyl]-[Arg12,Leu16,Lys24,Leu27,Ala28]-Glucagon] (H-HSQGTFTSDYSRYLDLRRAQDFVK([γGlu-γGlu-AEEA-AEEA-γGlu-C18 diacid])WLLAT-OH) | 5.8 | 0.253

Reference: patent US9486506B2 (Novo Nordisk A/S, priority 2011, dated 2016)
